Laboratory results from patent publication US20110196035A1, “Temporally-Controlled Treatment of Joint Disease” (priority 2010, published 2011).
Read-outs that look alike come from different tables or passages of the source.

Test system: HIG-82 synovial cells
Method: After having made these measurements at various times following insertion of the test composition into the simulated joint, the effect on MMP production by synovial cells for relevant blocker concentrations and times of exposure was measured employing a confluent layer of HIG-82 synovial cells in serumless Neuman-Tytell growth medium, which is a model system commonly used by those skilled in the art to represent human synovial tissue for the purpose of studying the proinflammatory effects of IL-1 and the antagonization thereon produced by agents of interest, for example, calcium-channel blockers.
The MMP levels in the medium conditioned by the cells were measured using the assay described in Kolomytkin, O. V., Marino, A. A., Waddell, D. D., Mathis, J. M., Wolf, R. E., Sadasivan, K. K. and Albright, J. A. IL-1β-induced Production of Metalloproteinases by Synovial Cells Depends on Gap-junction Conductance.

COc1ccc(CCN(C)CCCC(C#N)(c2ccc(OC)c(OC)c2)C(C)C)cc1OC (racemic) [racemic verapamil, verapamil]
reduction of MMP activity (0.009 mg/mL for 300 hours): about 21% | reduction of MMP production/activity (0.05 mg/mL for 32 hours): 59% | reduction of MMP production/activity (0.05 mg/mL for 34 hours): 61% | reduction in MMP activity (0.05 mg/mL for 62 hours): 87% | inhibition at 50 µg/mL (Synovial cell, 45 h, read-out: maximum MMP inhibition): ~81% | inhibition at 31 µg/mL (Synovial cell, 300 h, read-out: MMP inhibition): ~61% | inhibition at 19 µg/mL (Synovial cell, 300 h, read-out: maximum MMP inhibition): 37% | inhibition at 50 µg/mL (Synovial cell, read-out: MMP inhibition): 81% | reduction of MMP production (conditions of 2 mg in saline composition: average 0.006 mg/mL, about 35 hours): 13% | verapamil concentration at which MMP inhibition reaches its maximum value (exposure about 45 hours, further increases give no enhanced inhibition): about 0.05 mg/mL | maximum MMP inhibition (exposure time 10 hours (FIG. 3A)): 22% | maximum MMP inhibition (exposure time 100 hours (FIG. 3A)): 91%
